Test [1] deals with T1, AaOR10/Orco (Ae. aegypti OR10 with A. bakeri Orco) (Aedes aegypti, UniProt Q177X3).
T1 construct: gene GPRor10; co-expressed in HEK293 cells; with Odorant receptor coreceptor (Apocrypta bakeri)
T1 sequence (Q177X3 1-375): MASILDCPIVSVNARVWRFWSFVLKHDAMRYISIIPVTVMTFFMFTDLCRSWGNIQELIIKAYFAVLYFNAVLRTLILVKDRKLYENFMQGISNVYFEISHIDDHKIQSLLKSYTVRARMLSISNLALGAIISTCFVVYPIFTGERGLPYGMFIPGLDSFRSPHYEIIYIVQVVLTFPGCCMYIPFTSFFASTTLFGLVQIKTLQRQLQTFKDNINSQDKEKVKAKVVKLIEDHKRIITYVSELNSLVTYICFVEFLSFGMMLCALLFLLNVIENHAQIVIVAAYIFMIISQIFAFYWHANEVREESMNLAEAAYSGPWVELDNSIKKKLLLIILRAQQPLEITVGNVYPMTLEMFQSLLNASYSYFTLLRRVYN
T1 sequence (B0FAQ4 1-474 partner): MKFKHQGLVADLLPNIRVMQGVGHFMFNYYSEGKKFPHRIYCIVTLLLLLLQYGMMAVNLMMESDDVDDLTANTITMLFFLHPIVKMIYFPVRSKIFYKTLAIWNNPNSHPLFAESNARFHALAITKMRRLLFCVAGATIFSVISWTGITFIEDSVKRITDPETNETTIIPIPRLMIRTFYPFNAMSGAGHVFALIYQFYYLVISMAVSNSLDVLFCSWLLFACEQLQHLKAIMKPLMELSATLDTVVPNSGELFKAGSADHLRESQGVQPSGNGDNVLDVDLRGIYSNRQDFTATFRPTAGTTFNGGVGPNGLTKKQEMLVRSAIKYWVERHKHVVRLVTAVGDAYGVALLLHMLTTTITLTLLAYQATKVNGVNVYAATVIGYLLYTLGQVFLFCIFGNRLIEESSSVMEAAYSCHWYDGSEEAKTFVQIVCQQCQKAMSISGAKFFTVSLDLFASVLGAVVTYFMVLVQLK
Description: whole-cell voltage clamp, HEK293T cells. In kind it is cell-based. The note with it: agonist. From the text: whole-cell voltage clamp, HEK293T cells on AaOR10/Orco (Ae. aegypti OR10 with A. bakeri Orco) | whole-cell currents of AaOR10/Orco are indistinguishable in EC50 and overall dose-response parameters | measure their response to indole and o-cresol, canonical odorants known to activate AaOR10 heteromers

The target of test [2] is T2, AaOR10 in complex with the Orco from Ae. aegypti (Aedes aegypti, UniProt Q177X3).
T2 construct: gene GPRor10; both subunits from Ae. aegypti, co-expressed in HEK293T cells; stoichiometry not determined; with Odorant receptor coreceptor
T2 sequence (Q177X3 1-375): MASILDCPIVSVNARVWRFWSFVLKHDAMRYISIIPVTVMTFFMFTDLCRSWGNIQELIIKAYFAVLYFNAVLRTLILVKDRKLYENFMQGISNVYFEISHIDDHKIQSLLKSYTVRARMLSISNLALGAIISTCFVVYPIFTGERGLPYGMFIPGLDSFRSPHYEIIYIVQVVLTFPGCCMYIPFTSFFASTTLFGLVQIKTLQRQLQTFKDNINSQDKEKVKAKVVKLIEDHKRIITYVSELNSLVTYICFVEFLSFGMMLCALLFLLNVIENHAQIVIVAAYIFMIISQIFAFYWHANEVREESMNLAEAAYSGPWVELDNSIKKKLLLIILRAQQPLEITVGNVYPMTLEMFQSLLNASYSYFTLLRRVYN
T2 sequence (Q178U6 1-478 partner): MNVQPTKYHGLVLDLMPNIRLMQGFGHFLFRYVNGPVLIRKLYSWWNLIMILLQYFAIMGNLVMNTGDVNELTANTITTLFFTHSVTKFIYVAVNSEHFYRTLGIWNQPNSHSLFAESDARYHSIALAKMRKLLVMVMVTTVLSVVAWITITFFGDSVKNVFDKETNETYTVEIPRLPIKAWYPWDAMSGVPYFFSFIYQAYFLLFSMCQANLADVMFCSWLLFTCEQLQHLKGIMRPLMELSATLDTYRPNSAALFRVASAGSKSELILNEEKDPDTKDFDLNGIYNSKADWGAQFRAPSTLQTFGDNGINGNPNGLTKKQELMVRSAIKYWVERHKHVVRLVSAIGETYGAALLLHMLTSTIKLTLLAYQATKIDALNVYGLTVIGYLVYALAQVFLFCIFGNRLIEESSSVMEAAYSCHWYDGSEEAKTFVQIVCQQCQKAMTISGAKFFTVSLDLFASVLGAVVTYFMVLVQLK
Description: whole-cell voltage clamp, HEK293T cells. The note with it: agonist. In kind it is cell-based. From the text: whole-cell voltage clamp, HEK293T cells on AaOR10 in complex with the Orco from Ae. aegypti | those obtained with AaOR10 in complex with the Orco from Ae. aegypti | AaOR10 with either A. bakeri (black) or Ae. aegypti Orco (gold)

The target in test [3] is T1, AaOR10/Orco (Ae. aegypti OR10 with A. bakeri Orco). Description: cryo-EM structure of complex. In kind it is binding. Particulars: 2.9 Å; one site, in the OR10 subunit (S2, S3, S4, S6).
Test [4] deals with Anopheles gambiae odorant receptor OR28 (Anopheles gambiae). Description: cryo-EM structure; AgOR28 co-expressed with A. bakeri Orco, purified complex; unbound and 2,4,5-trimethylthiazole (TMT)-bound states.
Test [5] addresses Aedes aegypti odorant receptor OR10 (Aedes aegypti). As to the kind of experiment: cryo-EM structure; AaOR10/Orco heteromers co-expressed in HEK293 cells (1:1 OR to Orco virus), purified by an affinity tag on the OR subunit, in detergent micelle; unbound and o-cresol-bound states.
The mark [6] stands for this setting: far from saturation at high concentration, limiting goodness of fit.

Consider `c1ccc2[nH]ccc2c1` [indole], for which the values for the EC50 in test [1] (Hill coefficient about one) and in test [2] were 1.09 µM and 1.51 µM, respectively.

On to `Cc1ccccc1O` [o-cresol], for which the EC50 is 13.3 µM in test [1] (setting [6]) and 11.3 µM in test [2] (setting [6]). Also, the “cryo-EM structure of complex” value in test [3] was “determined the cryo-EM structure of the AaOR10/Orco complex bound to o-cresol”.

B1: Apocrypta bakeri odorant receptor co-receptor Orco (receptor)
chain: MKFKHQGLVADLLPNIRVMQGVGHFMFNYYSEGKKFPHRIYCIVTLLLLLLQYGMMAVNLMMESDDVDDLTANTITMLFFLHPIVKMIYFPVRSKIFYKTLAIWNNPNSHPLFAESNARFHALAITKMRRLLFCVAGATIFSVISWTGITFIEDSVKRITDPETNETTIIPIPRLMIRTFYPFNAMSGAGHVFALIYQFYYLVISMAVSNSLDVLFCSWLLFACEQLQHLKAIMKPLMELSATLDTVVPNSGELFKAGSADHLRESQGVQPSGNGDNVLDVDLRGIYSNRQDFTATFRPTAGTTFNGGVGPNGLTKKQEMLVRSAIKYWVERHKHVVRLVTAVGDAYGVALLLHMLTTTITLTLLAYQATKVNGVNVYAATVIGYLLYTLGQVFLFCIFGNRLIEESSSVMEAAYSCHWYDGSEEAKTFVQIVCQQCQKAMSISGAKFFTVSLDLFASVLGAVVTYFMVLVQLK
With B1, the stoichiometry N (Orco subunits per OR subunit) in test [4] and in test [5] was 3 each time.

For orientation: EC50 means the midpoint of the concentration-response curve.
